In PMC6331978 (Molecules, 2015):
Entries after “also recorded” stand apart in the source; their conditions may differ. Where two headings read alike, the source gives them in different places.

Key:
[1] = tested on: primary culture of rat hepatocytes; assay: Effect of sesquiterpenes on DOX toxicity in hepatocytes, MTT test; settings: 24 h; for Effect on DOX toxicity in hepatocytes at 0.5 µM DOX: 0.5 µM DOX + 12.5 µg/mL sesquiterpene; for Effect on DOX toxicity in hepatocytes at other DOX concentrations: DOX 0.25, 1, 2 µM + sesquiterpene
Method: (§2) The toxicity of DOX alone as well as combinations of DOX and sesquiterpene was tested in primary culture of rat hepatocytes. […] The number of viable cells was measured after 24 h exposition of cells to various concentrations of the tested compounds.
Data presented as percentage of control cells (=100%) represent the mean ± S.D. from 2 independent experiments with 6 parallels in each (↑ significant increase; ↓ significant decrease).
Pure commercially available sesquiterpenes and DOX were pre-dissolved in DMSO or in pure ethanol. The concentration of organic solvent in medium was 0.1%. The cells were exposed to various concentrations of the tested compounds in culture medium. The cells cultured in medium with pure DMSO or ethanol without tested compounds were used as control samples. DMSO (10%) served as a positive control in both the primary culture of hepatocytes and of CaCo-2 cells. […] The viability of the hepatocytes was tested using a MTT assay after 24 h expositions.
(§3) The mitochondria of living cells are able to reduce yellow MTT (3-(4,5-dimethylthiazol-2-yl)-2,5-diphenyltetrazolium bromide) to purple formazan. The cells were cultured in 96-well plates. After 24 h exposure, 25 µL of MTT solution (3 mg of MTT in 1 mL of PBS) were added to each well. The plates were incubated for an additional 2 h at 37 °C, at which time the medium was removed and the formed formazan was dissolved in 50 µL of 0.08 M HCl in isopropanol by 30 min shaking. The absorbance in each well was read at 570 and 690 nm using a spectrophotometer (Tecan Infinite M200).

CaCo-2 cells [2] = assay: Combination of DOX and sesquiterpenes in CaCo-2 cells, NRU test, combination indexes (CalcuSyn); assay type: cell-based, human; settings: CaCo-2, 72 h; for Combined effect with DOX (combination index, CI): NRU, CalcuSyn
Method: Concentrations of DOX and sesquiterpenes were selected according to the Chou-Talalay Method. After 72-h incubation, the number of viable cells was assayed using NRU. […] When DOX was used in combinations with individual sesquiterpenes, a significant increase of DOX efficacy was observed.
With the aim of evaluating and quantifying the combined effect of DOX and sesquiterpenes, combination indexes were calculated using CalcuSyn (ver. 1.1, Biosoft, Cambridge, UK); the plot of combination indexes (CI) vs. fractions of dead cells (Fa) is presented in Figure 5. […] It is important to emphasize that synergy of anticancer agents at high effect levels (Fa > 0.8) is more relevant to therapy than at low levels.
Figure 5 Combination indexes (CI) of DOX and sesquiterpenes in dependence on fraction of affected CaCo-2 cells (Fa). Incubations lasted for 72 h. Data were calculated using CalcuSyn software.
The cells were cultured in 96‑well plates. After 72 h exposure, the medium was removed and 100 µL of neutral red-containing medium was added into each well, at which time the plates were incubated for an additional 3 h at 37 °C. The cells were washed with 100 µL of PBS, then fixed in a solution of 0.5% formaldehyde/1% calcium chloride for 15 min. The neutral red dye was extracted from the viable cells with a solvent (50% ethanol/1% acetic acid) by shaking for 30 min at room temperature. The absorbance of solubilized dye was measured using a spectrophotometer (Infinite M200, Tecan, Männedorf, Switzerland) at 540 nm. Each sample was assayed in 6 parallels and 3 independent experiments were performed. The viabilities of the treated cells were expressed as a percentage of untreated controls (100%). The effect of sesquiterpenes on DOX efficacy was evaluated using CalcuSyn software.

[3] = tested on: primary culture of rat hepatocytes; assay: Viability of primary culture of rat hepatocytes, MTT test; settings: 24 h; for Hepatotoxicity / viability of hepatocytes: sesquiterpene alone 0–50 µg/mL
Method: as §2
The rat hepatocytes were obtained from rat liver by the two-step collagenase method. Briefly, the liver was perfused with salt solution (0.14 M NaCl, 5.0 mM KCl, 0.8 mM MgSO4) in Na^+/K^+ phosphate buffer (0.2 mM, pH 7.4) containing a calcium binding component (0.4 mM EGTA). […] The collagenase perfusion was proceeded for 5–6 min. After perfusion the liver was transferred to a medium containing BSA and the hepatocytes were released. The obtained suspension was filtered through a nylon mesh and centrifuged at 40× g for 5 min at 4 °C. The pellet was re-suspended in chilled buffer and the washing procedure was twice repeated. Finally, three million viable (75%–85%) cells in 3 mL of culture medium ISOM (1:1 mixture of Ham F12 and Williams’ E) were placed into 96-well plastic dishes. The fetal calf serum was added in the culture medium (5%). Cultures were maintained without the tested compounds for 4 h at 37 °C in a humid atmosphere of air and 5% CO2.
Pure commercially available sesquiterpenes and DOX were pre-dissolved in DMSO or in pure ethanol. The concentration of organic solvent in medium was 0.1%. The cells were exposed to various concentrations of the tested compounds in culture medium. The cells cultured in medium with pure DMSO or ethanol without tested compounds were used as control samples. […] The viability of the hepatocytes was tested using a MTT assay after 24 h expositions.
as §3

CaCo-2 cells [4] = assay: Antiproliferative effect in CaCo-2 cells, neutral red uptake (NRU) test; assay type: cell-based, human; settings: for Inhibition of cancer cell proliferation: 0–50 µg/mL, 72 h; for IC50: Homo sapiens
Method: Firstly, the antiproliferative effect of five sesquiterpenes CAR, CAO, HUM, NER, VAL was tested in CaCo-2 cancer cells. The cells were incubated with individual sesquiterpenes in concentrations 0–50 µg/mL for 72 h. After incubation, a number of viable cells was assayed using a NRU test and IC50 values were calculated.
CaCo-2 cancer cells were incubated with DOX alone (concentrations 0.25, 0.5, 1, 2, 4 µM), with individual sesquiterpenes alone (concentrations 6.125, 12.5, 25, 50 µg/mL) and with DOX (concentrations 0.25, 0.5, 1, 2 µM) in combinations with each sesquiterpene (concentrations 6.125, 12.5, 25, 50 µg/mL). […] After 72-h incubation, the number of viable cells was assayed using NRU.
The human epithelial colorectal adenocarcinoma line CaCo-2 was purchased from ATCC (supplier for Czech Republic: LGC Standards, Lomianki, Poland). […] The CaCo-2 cells were cultured in MEM supplemented with 10% heat-inactivated FBS, 1% non-essential amino acid, 1.5% L-glutamine solution and 0.5% penicillin/streptomycin. Cells were grown in T-75 cm^2 culture flasks in a humidified atmosphere containing 5% CO2 at 37 °C.
Pure commercially available sesquiterpenes and DOX were pre-dissolved in DMSO or in pure ethanol. The concentration of organic solvent in medium was 0.1%. The cells were exposed to various concentrations of the tested compounds in culture medium. The cells cultured in medium with pure DMSO or ethanol without tested compounds were used as control samples. […] The number of viable CaCo-2 cells was assayed using the neutral red uptake test after 72 h expositions.
Data are presented as means ± S.D. of a given number of experiments. Statistical significance (evaluated using a one-way ANOVA) was acceptable to a level of p < 0.05. The concentration inducing a 50% decrease of cell viability as compared to control (IC50) was calculated using GraphPad Prism 6.0 nonlinear regression.

CaCo-2 cells [5] = assay: Intracellular ROS formation (H2DCF-DA) in CaCo-2 cells; assay type: cell-based, human; settings: for Effect on ROS formation, sesquiterpene alone: 10 µg/mL; for Effect of DOX + sesquiterpene on ROS formation compared with DOX alone: DOX 1 µM + sesquiterpene 10 µg/mL
From the text: (§1) To assess ROS generation in CaCo-2 cells or […], a measurement of 2′,7′-dichlorodihydrofluorescein-diacetate (H2DCF-DA) oxidation was used. This non-fluorescent reagent diffuses passively through the plasma membrane into the cell, where the acetate groups are cleaved by intracellular esterases. The compound can then be oxidized by ROS formed within the cell (particularly by hydroxyl radicals, •OH) to form fluorescent dichlorofluorescein (DCF), while the fluorescence intensity is proportional to the ROS level. CaCo-2 cells or hepatocytes (seeded in a 96-well plate at a density of 2500 cells/well) were washed by PBS buffer and loaded with 100 µL of the tested substances (individual sesquiterpenes, DOX alone, DOX + sesquiterpene combinations pre-dissolved in DMSO) in PBS buffer. After 12-h incubation, 100 µL of 5 μM H2DCF-DA were added. After another incubation of 30-min, fluorescence intensity was measured for 50 min at 37 °C using a microplate reader Tecan Infinite M200 at λex = 485 nm and λem = 525 nm. Cells treated with PBS only with pure DMSO (as a solvent) were used as control samples. The 3% H2O2 solution was used as a positive control.

hepatocytes = assay: Intracellular ROS formation (H2DCF-DA) in hepatocytes; assay type: cell-based, rat; settings: DOX 1 µM
From the text: as §1

CaCo-2 cells [6] = assay: DOX accumulation in CaCo-2 cells (UHPLC); assay type: cell-based, human; settings: 3 h; for Effect on intracellular DOX concentration: DOX 6 µM + sesquiterpene 10 or 50 µg/mL
Method: The effect of sesquiterpenes on DOX accumulation in cells was also studied. Concentrations of DOX within cells after a 3-h incubation of CaCo-2 cells, hepatocytes with DOX alone and DOX + sesquiterpene combinations were analyzed. […] On the other hand, the addition of all sesquiterpenes to DOX led to a concentration-dependent increase of DOX concentration within CaCo-2 cells. […] CAO (at concentration 50 µg/mL) was able to enhance the intracellular DOX concentration in CaCo-2 cells at a rate of 3.6-times.
The suspension of CaCo-2 cells or hepatocytes (600 µL; density 5000 cells/100 µL) per well was set to a 12-well plate. After 48 h, 600 µL of solutions in medium of the tested substances were added. The cells were treated with DOX (6 µM) alone, or in combination with individual sesquiterpenes (10 or 50 µg/mL) for 3 h. At the end of the experiment, the medium was removed and cells were washed with 500 µL of PBS. One hundred µL of lysing buffer (25 mM Tris, 150 mM NaCl, 1% Triton, pH 7.4) were then added, at which time the cells were lysed for 15 min, then mixed with 300 µL of ice-cold methanol and centrifuged (10,000× g, 10 min, 4 °C). The supernatant was filtered through a 0.22 µm filter and the filtrate was used for analysis.
DOX was detected on an Agilent 1290 Series UHPLC chromatographic system (Agilent, Santa Clara, CA, USA) equipped with a Zorbax C18 Eclipse Plus (2.1 × 50 mm, 1.8 μm) column with a 1290 Infinity inline filter (Agilent). The HPLC method used by was adapted to a UHPLC system: Isocratic elution of 1.0 mL/min by 0.1% formic acid in water and acetonitrile in ratio 76:24; 30 °C thermostated column compartment; fluorescence detection at λex = 480 nm and λem = 560 nm. Chemical standards were purchased from Toronto Research Chemicals (Toronto, ON, Canada).

[7] = CaCo-2 cells, 72 h incubation, NRU test, concentrations 0–50 µg/mL, read-out: IC50

SMILES	IC50 (CaCo-2 cells [4]; CaCo-2 cells, 72-h incubation, NRU, DOX alone, read-out: IC50 (antiproliferative effect of DOX)) [nM]	IC50 (CaCo-2 cells [4]; [7]) [µg/mL]	Effect on DOX toxicity in hepatocytes at 0.5 µM DOX [1]	Effect on DOX toxicity in hepatocytes at other DOX concentrations [1]	Combined effect with DOX (combination index, CI) (CaCo-2 cells [2])	Hepatotoxicity / viability of hepatocytes [3]	Inhibition of cancer cell proliferation (CaCo-2 cells [4]; CaCo-2 cells, NRU)	IC50 (CaCo-2 cells [4]; Caco-2, 72 h) [µg/mL]	Effect on ROS formation, sesquiterpene alone (CaCo-2 cells [5])	Effect of DOX + sesquiterpene on ROS formation compared with DOX alone (CaCo-2 cells [5])	Hepatotoxicity of DOX alone ([3]; DOX 0.25–2 µM)	Effect of DOX alone on ROS production (hepatocytes)	Effect of DOX alone on ROS production (CaCo-2 cells [5]; DOX 1 µM)	Effect on intracellular DOX concentration (CaCo-2 cells [6])	Enhancement of intracellular DOX concentration (CaCo-2 cells [6]; sesquiterpene 50 µg/mL, DOX 6 µM, vs DOX alone) [times]	Effect on DOX toxicity in hepatocytes at DOX 0.25 and 2 µM ([1]; DOX 0.25 and 2 µM + sesquiterpene)	Combined effect with DOX at Fa > 0.8 (CaCo-2 cells [2]; higher number of cells affected (Fa > 0.8))	Combined effect with DOX at lower Fa (CaCo-2 cells [2]; lower fraction of affected cells)	Effect on DOX toxicity in hepatocytes ([1]; DOX 0.25–2 µM + sesquiterpene 6.125–50 µg/mL)
C=C(C)[C@@H]1CCC2=CCC[C@@H](C)[C@]2(C)C1 [VAL, valencene]	–	–	increased DOX toxicity	did not influence DOX toxicity	significant synergistic effects with DOX	none of tested sesquiterpenes showed hepatotoxicity	inhibited the proliferation of CaCo-2 cancer cells	38.1 ± 2.4	pro-oxidative effects	increase the pro-oxidative effect of DOX	–	–	–	–	–	–	–	–	–
COc1cccc2c1C(=O)c1c(O)c3c(c(O)c1C2=O)C[C@@](O)(C(=O)CO)C[C@@H]3O[C@H]1C[C@H](N)[C@H](O)[C@H](C)O1 [DOX, doxorubicin, reference compound]	1900	–	–	–	–	–	–	–	–	–	marked hepatotoxicity	did not have a significant effect	increased ROS production	–	–	–	–	–	–
C=C1CC[C@H]2O[C@]2(C)CC[C@@H]2[C@@H]1CC2(C)C [CAO, β-caryophyllene oxide]	–	> 50	–	–	significant synergistic effects with DOX	none of tested sesquiterpenes showed hepatotoxicity; also recorded: mildly increased the viability of hepatocytes in a concentration-dependent manner	inhibited the proliferation of CaCo-2 cancer cells	–	pro-oxidative effects	increase the pro-oxidative effect of DOX	–	–	–	more pronounced enhancement of DOX accumulation	3.6	significantly ameliorate DOX toxicity	strongest	–	–

Further lines, with some results ahead:

IC50 (CaCo-2 cells [4]; CaCo-2 cells, 72-h incubation, NRU, DOX alone, read-out: IC50 (antiproliferative effect of DOX)) [nM]	IC50 (CaCo-2 cells [4]; [7]) [µg/mL]	SMILES	Effect on DOX toxicity in hepatocytes at 0.5 µM DOX [1]	Effect on DOX toxicity in hepatocytes at other DOX concentrations [1]	Combined effect with DOX (combination index, CI) (CaCo-2 cells [2])	Hepatotoxicity / viability of hepatocytes [3]	Inhibition of cancer cell proliferation (CaCo-2 cells [4]; CaCo-2 cells, NRU)	IC50 (CaCo-2 cells [4]; Caco-2, 72 h) [µg/mL]	Effect on ROS formation, sesquiterpene alone (CaCo-2 cells [5])	Effect of DOX + sesquiterpene on ROS formation compared with DOX alone (CaCo-2 cells [5])	Hepatotoxicity of DOX alone ([3]; DOX 0.25–2 µM)	Effect of DOX alone on ROS production (hepatocytes)	Effect of DOX alone on ROS production (CaCo-2 cells [5]; DOX 1 µM)	Effect on intracellular DOX concentration (CaCo-2 cells [6])	Enhancement of intracellular DOX concentration (CaCo-2 cells [6]; sesquiterpene 50 µg/mL, DOX 6 µM, vs DOX alone) [times]	Effect on DOX toxicity in hepatocytes at DOX 0.25 and 2 µM ([1]; DOX 0.25 and 2 µM + sesquiterpene)	Combined effect with DOX at Fa > 0.8 (CaCo-2 cells [2]; higher number of cells affected (Fa > 0.8))	Combined effect with DOX at lower Fa (CaCo-2 cells [2]; lower fraction of affected cells)	Effect on DOX toxicity in hepatocytes ([1]; DOX 0.25–2 µM + sesquiterpene 6.125–50 µg/mL)
–	28.7 ± 2.5	C=CC(C)(O)CC/C=C(\C)CCC=C(C)C (racemic) [NER, (±)-trans-nerolidol]	increased DOX toxicity	did not influence DOX toxicity	significant synergistic effects with DOX	none of tested sesquiterpenes showed hepatotoxicity	most effective; also recorded: inhibited the proliferation of CaCo-2 cancer cells	–	strong antioxidant	significant antioxidant effect	–	–	–	more pronounced enhancement of DOX accumulation	–	–	–	most synergistic effect on DOX	–
–	24.4 ± 2.4	C/C1=C\CC/C(C)=C/CC(C)(C)/C=C/C1 [HUM, α-humulene]	–	–	acted rather additively	none of tested sesquiterpenes showed hepatotoxicity	most effective; also recorded: inhibited the proliferation of CaCo-2 cancer cells	–	did not influence ROS formation	–	–	–	–	–	–	–	–	–	did not affect DOX toxicity
